Test results from patent US20080038809A1, “ISOLATED LECTIN POLYPEPTIDES CONSISTING OF TRUNCATED […] UDP-GalNAc:POLYPEPTIDE N- ACETYLGALACTOSAMINYLTRANSFERASES” (GLYCOZYM APS, priority 2002, published 2008).
“Also recorded” adds a separate entry of the source.

Tests used:
[1] = test system: MUC1 in CHO1d1D/MUC1F-clone2 cells; test: MUC1 expression in cell lysates, immunoprecipitation and SDS-PAGE western blot (FIGS. 12-15); type: cell-based, Chinese Hamster; conditions: 2 mM, 48 hours
Method: FIG. 12 is an SDS-PAGE Western analysis of GalNAcα-benzyl inhibition of MUC1 expression in CHO 1d1D cells stably transfected with a full coding MUC1 construct. […] Cells were further treated with 2 mM GalNAcα-benzyl (lanes 1, 4, 7, 10), 2 mM GlcNAcα-benzyl (lanes 2, 5, 8, 11) or no inhibitor (lanes 3, 6, 9, 12). Cells were washed and lysed at 24 or 48 hours and the lysates subjected to immunoprecipitation with monoclonal antibody HMFG2, which broadly recognize MUC1 glycoforms. Immunoprecipitates were analysed by SDS-PAGE and western blot using HMFG2 antibody to detect MUC1 expression. Lane M indicates molecular markers with assigned mw. Lane C includes a control MUC1 180-mer tandem repeat peptide which has been GalNAc-glycosylated with 3 moles GalNAc per repeat using GalNAc-T2. The sharp bands migrating at 100-200 kd are immunoglobulins indicated by IgG.
Cells were further treated with 2 mM GalNAcα-benzyl (lanes 1, 4, 7, 10), 2 mM GalNAcβ-benzyl (lanes 2, 5, 8, 11) or 2 mM GlcNAcα-benzyl (lanes 3, 6, 9, 12). Cells were washed and lysed at 36 hours and the lysates subjected to immunoprecipitation with monoclonal antibodies HMFG2 (lanes 1-6) or 5E5 (lanes 7-12). Immunoprecipitates were analysed by SDS-PAGE and western blot using HMFG2 antibody. Lanes M and C as described in legend to FIG. 7.
We next analysed the expression of MUC1 produced by CHO1d1D/MUC1F-clone2 cells by SDS-PAGE western analysis. […] Cells were further treated with 2 mM GalNAcα-benzyl, GlcNAcα-benzyl or no inhibitor. Cells were washed and lysed at 24 or 48 hours and the lysates subjected to immunoprecipitation with monoclonal antibody HMFG2, which broadly recognize MUC1 glycoforms. Immunoprecipitates were analysed by SDS-PAGE and western blot using HMFG2 antibody to detect MUC1 expression. […] In striking contrast, treatment with GalNAcα-benzyl had significant effect after 48 hours. […] This indicates some heterogeneity in glycosylation.
As shown in Examples 2 and 3, polypeptide GalNAc-transferases contain lectin domains with binding properties for GalNAc-peptides including GalNAc-MUC1 peptides. […] GalNAcβ-benzyl, the β-anomeric configuration of GalNAc-benzyl (there is a β linkage between the N-acetylgalactosamine and the benzyl ring), was custom synthesized by Alberta Research Council (Canada), and its structure was confirmed by mass spectrometry and ^1H-NMR. […] Cells were then treated with 2 mM GalNAcα-benzyl, GalNAcβ-benzyl, or GlcNAcα-benzyl as control (GlcNAcα-benzyl was shown in Example 4 to have no effect). Cells were washed and lysed as described above after 36 hours and the lysates subjected to immunoprecipitation with anti-MUC1 monoclonal antibodies HMFG2 or 5E5. […] FIG. 15 illustrates the same experiment as in FIG. 14 except that the detection antibody is 5E5 and only Tn and STn MUC1 glycoforms are visualised.

[2] = test system: MUC5AC in HT-29 MTX cells; test: MUC5AC secretion, SDS-PAGE western blot of media with LUM5-1 (FIG. 17); type: cell-based, human; conditions: 5 mM, continuous culture, media at 14 days
Method: FIG. 17 illustrates SDS-PAGE Western analysis of MUC5AC secretion from HT29MTX cells using polyclonal anti-MUC5AC antibody LUM5-1. In order to evaluate GalNAcβ-benzyl as an inhibitor of mucin glycosylation and secretion we used the HT-29 metotrexate (MTX) cultured colon carcinoma cells of mucin secreting phenotype. HT-29 MTX cells have a goblet cell like phenotype with constitutive production of MUC5AC. Cells were continuously grown up to 21 days in the presence of 5 mM GalNAcα-benzyl, 5 mM GalNAcβ-benzyl, 5 mM GlcNAcα-benzyl and without inhibitor. […] In striking contrast, MUC5AC was not detected in the media from cells treated with GalNAcα-benzyl (Lane 3) or GalNAcβ-benzyl (Lane 4). Results shown are from media collected at 14 days.
In order to evaluate GalNAcβ-benzyl as an inhibitor of mucin glycosylation and secretion we used the cultured colon carcinoma cells of mucin secreting phenotypes: HT-29 metotrexate (MTX) cells selected from the HT-29 cell line by culture in the presence of MTX (kind gift from G. Huet, France). The HT-29 MTX cells were selected to yield a goblet cell like phenotype with constitutive production of MUC5AC. In order to ensure proper goblet cell differentiation the HT29MTX cell line were continuously grown up to 21 days in the presence of 5 mM GalNAcα-benzyl, 5 mM GalNAcβ-benzyl, 5 mM GlcNAcα-benzyl and without inhibitor using culture conditions as described in Hennebicq-Reig et al. (Permanent exposure of mucin-secreting HT-29 cells to benzyl-N-acetyl-alpha-D-galactosaminide induces abnormal O-glycosylation of mucins and inhibits constitutive and stimulated MUC5AC secretion. Biochem J. 1998; 334:283-95). […] Furthermore the viscosity of the media from cells with and without inhibitor was evaluated using viscosity micro-measurement.

GalNAc-T2 lectin domain = molecular target: T1, GalNAc-T2 lectin domain (Homo sapiens, UniProt Q10471); test: Inhibition of GalNAc-T2 lectin domain (T2ld) binding to GalNAc-MUC1 glycopeptide, ELISA
T1 construct: comprises amino acid residues 408-571 of GALNT2; made in house; host or cells: baculovirus (pAcGP67-A), virus made in Sf9, protein produced in High Five insect cells
T1 sequence (Q10471 408-571): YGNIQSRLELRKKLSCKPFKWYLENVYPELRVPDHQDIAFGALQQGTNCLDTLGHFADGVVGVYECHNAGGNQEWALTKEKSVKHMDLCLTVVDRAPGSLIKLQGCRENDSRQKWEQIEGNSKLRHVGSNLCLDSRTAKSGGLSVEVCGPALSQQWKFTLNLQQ
Method: (§1) Direct binding ELISA assay was developed as follows: Polystyrene microtiter plates (Maxisorb, Nunc, Denmark) were coated with peptides or enzymatically glycosylated glycopeptides in PBS overnight at 4° C. Plates were washed and blocked with 0.1% Tween20 and 0.2% BSA in PBS for 1 h at room temperature, followed by incubation with biotinylated proteins in PBS with 0.05% Tween20 for 2 h at room temperature. After four washes with PBS, plates were incubated with 1:2,000 dilution streptavidin-HRP (Sigma) in PBS for 30 min at room temperature and washed four times with PBS. Development was performed with 0.5 mg/ml o-phenylenediamine and 0.02% H2O2 at room temperature for 15 min, and reaction stopped by adding 100 μl/well of 0.5 N H2SO4. Competitive inhibition assays were done at end-point titers of GalNAc-transferase proteins with one hour preincubations with inhibitor.
(§2) In binding studies using lectins without biotinylation antibodies to the HIS-tag and the T7-tag, or in some experiments antibodies raised to GalNAc-T2 and -T4 enzymes were used to detect binding.
(§3) Inhibition experiments were used to further define the binding specificity of GalNAc-T2 and -T4 secreted soluble enzymes as well as lectin domains compared to Helix Pomatia lectin (Table IV).

[3] = molecular target: T2, secreted soluble GalNAc-T2 (Homo sapiens, UniProt Q10471); test: Inhibition of secreted soluble GalNAc-T2 (sT2) binding to GalNAc-MUC1 glycopeptide, ELISA
T2 construct: 6xHis (N); thrombin cleavage site (N); T7 antibody site (N); made in house; host or cells: baculovirus (pAcGP67A), High Five insect cells
Method: as §1, §3

GalNAc-T4 lectin domain = molecular target: T3, GalNAc-T4 lectin domain (Homo sapiens, UniProt Q8N4A0); test: Inhibition of GalNAc-T4 lectin domain (T4ld) binding to GalNAc-MUC1 glycopeptide, ELISA
T3 construct: comprises amino acid residues 405-578 of GALNT4; made in house; host or cells: baculovirus (pAcGP67-A), virus made in Sf9, protein produced in High Five insect cells
Method: as §1, §2, §3

[4] = molecular target: T4, secreted soluble GalNAc-T4 (Homo sapiens, UniProt Q8N4A0); test: Inhibition of secreted soluble GalNAc-T4 (sT4) binding to GalNAc-MUC1 glycopeptide, ELISA
T4 construct: 6xHis (N); thrombin cleavage site (N); T7 antibody site (N); made in house; host or cells: baculovirus (pAcGP67A), High Five insect cells
Method: as §1, §3

[5] = test system: GalNAc-T2 and -T4 secreted soluble enzymes as well as lectin domains; test: Inhibition of GalNAc-transferase lectin binding to GalNAc-glycopeptides, statements on GalNAc-T2 and -T4 together; parameters: species or system human; conditions: enzymes and isolated lectins
Method: as §1
Lectins and antibodies to carbohydrates usually recognize the anomeric configuration of the sugar structures they bind.
as §3

GalNAc-T4 = GalNAc-T4 (Homo sapiens, UniProt Q8N4A0); conditions: 230 mM; cited from earlier work
[6] = molecular target: T5, human GalNAc-T2 (UDP-GalNAc:polypeptide N-acetylgalactosaminyltransferase T2) isolated truncated lectin domain (T2ld), HIS-tagged, amino acid residues 408-571 o (Homo sapiens, UniProt Q10471); type: binding
T5 sequence (Q10471 408-571): T1 sequence (Q10471 408-571)
From the text: (§4) In order to minimize the size and functional complexity of GalNAc-transferase lectins to be used as probes for binding studies, we used multiple sequence alignment analysis to predict and design suitable expression constructs for isolated lectin domains (FIG. 2). In the present invention a direct binding assay was developed using isolated lectin domains of GalNAc-T4 and -T2 with minimal size (FIG. 5). […] The lectin Helix Pomatia (HP) was used as a control plant lectin with known binding specificity for […].
as §1, §2, §3
(§5) The ligand target used in this Example is a GalNAc-MUC1 glycopeptide produced enzymatically from synthetic peptides.

[7] = molecular target: human GalNAc-T4 (UDP-GalNAc:polypeptide N-acetylgalactosaminyltransferase T4) isolated truncated lectin domain (T4ld), HIS-tagged, amino acid residues 405-578 o (Homo sapiens, UniProt Q8N4A0); test: biochemical; type: binding; conditions: isolated lectin domain
From the text: as §4, §1, §2, §3, §5

T2 sequence (Q10471 52-571 limits assumed): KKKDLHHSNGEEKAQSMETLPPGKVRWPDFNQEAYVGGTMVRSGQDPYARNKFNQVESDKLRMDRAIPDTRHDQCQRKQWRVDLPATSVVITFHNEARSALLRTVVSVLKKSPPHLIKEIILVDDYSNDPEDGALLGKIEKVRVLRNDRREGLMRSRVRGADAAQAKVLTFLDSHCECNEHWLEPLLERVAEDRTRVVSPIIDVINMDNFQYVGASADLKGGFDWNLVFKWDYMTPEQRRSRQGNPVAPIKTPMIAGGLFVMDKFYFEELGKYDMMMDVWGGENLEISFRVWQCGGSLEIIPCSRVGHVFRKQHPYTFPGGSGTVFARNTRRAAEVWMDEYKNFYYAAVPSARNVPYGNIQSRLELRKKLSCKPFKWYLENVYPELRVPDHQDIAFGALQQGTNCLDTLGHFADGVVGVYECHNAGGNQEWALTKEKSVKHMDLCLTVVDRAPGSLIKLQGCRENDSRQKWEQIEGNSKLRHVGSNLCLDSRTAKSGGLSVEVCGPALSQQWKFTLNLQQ
human GalNAc-T4 (UDP-GalNAc:polypeptide N-acetylgalactosaminyltransferase T4) isolated truncated lectin domain (T4ld), HIS-tagged, amino acid residues 405-578 o, sequence (Q8N4A0 405-578): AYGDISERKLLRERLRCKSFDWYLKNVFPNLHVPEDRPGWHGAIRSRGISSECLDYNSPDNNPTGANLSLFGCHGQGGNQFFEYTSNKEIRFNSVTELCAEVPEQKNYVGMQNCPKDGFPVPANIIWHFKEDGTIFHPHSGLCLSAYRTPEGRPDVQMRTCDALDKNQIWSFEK
T3 sequence (Q8N4A0 405-578): as above
GalNAc-T4, sequence (Q8N4A0 whole entry, the tested form may be a part): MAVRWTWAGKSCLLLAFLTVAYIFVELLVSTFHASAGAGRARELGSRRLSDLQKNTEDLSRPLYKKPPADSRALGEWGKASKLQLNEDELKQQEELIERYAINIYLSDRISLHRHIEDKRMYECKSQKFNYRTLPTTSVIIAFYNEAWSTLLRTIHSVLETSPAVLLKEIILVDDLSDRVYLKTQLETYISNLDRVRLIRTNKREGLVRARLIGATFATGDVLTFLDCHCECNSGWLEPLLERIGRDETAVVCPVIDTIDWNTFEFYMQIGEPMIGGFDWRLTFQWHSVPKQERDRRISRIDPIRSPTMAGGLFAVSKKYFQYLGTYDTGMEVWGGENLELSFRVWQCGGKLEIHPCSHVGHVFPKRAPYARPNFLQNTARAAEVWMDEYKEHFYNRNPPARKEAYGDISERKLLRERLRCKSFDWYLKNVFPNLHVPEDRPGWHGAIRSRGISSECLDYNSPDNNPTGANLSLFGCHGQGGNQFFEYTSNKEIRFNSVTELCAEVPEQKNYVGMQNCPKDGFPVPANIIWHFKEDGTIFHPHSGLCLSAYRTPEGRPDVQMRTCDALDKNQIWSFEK
T4 sequence (Q8N4A0 36-578 limits assumed): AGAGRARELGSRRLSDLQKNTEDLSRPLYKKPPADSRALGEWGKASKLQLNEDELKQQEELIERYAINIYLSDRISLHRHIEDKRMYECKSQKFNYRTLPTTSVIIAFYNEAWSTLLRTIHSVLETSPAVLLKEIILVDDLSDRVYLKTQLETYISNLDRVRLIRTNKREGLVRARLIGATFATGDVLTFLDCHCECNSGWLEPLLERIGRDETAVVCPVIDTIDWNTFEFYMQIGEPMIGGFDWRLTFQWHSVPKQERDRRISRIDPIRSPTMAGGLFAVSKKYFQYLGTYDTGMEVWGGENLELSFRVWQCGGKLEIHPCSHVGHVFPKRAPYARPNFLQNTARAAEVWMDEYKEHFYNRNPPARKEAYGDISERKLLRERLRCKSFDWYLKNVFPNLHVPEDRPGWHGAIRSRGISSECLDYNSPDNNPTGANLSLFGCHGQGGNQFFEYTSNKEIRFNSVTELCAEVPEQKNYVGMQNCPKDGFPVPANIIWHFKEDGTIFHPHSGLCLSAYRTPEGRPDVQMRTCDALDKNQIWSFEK

In the case of `CC(=O)N[C@H]1[C@@H](OCc2ccccc2)O[C@H](CO)[C@@H](O)[C@@H]1O` [BzlαGlcNAc], the MUC1 expression ([1]; HMFG2 blot, cells grown in GalNAc or Gal and GalNAc, listed as GlcNAcα-benzyl) is reported as “same glycoforms at similar intensity; also recorded: no effect”, the “SDS-PAGE migration of MUC1 (O-glycosylation)” value ([1]; cells grown in Gal and GalNAc) is reported as “no effect” and the “MUC5AC in media (secretion)” value [2] is reported as “detected”.

In the case of `CC(=O)N[C@H]1C(O)O[C@H](CO)[C@H](O)[C@@H]1O` (some centres unmarked) [GalNAc, N-acetylgalactosamine], the IC50 (GalNAc-T2 lectin domain) is reported as 37 mM, the IC50 [3] is reported as 15 mM and the IC50 (GalNAc-T4 lectin domain) is reported as 5 mM. For the same compound, the IC50 [4] was 1 mM, the “inhibition of GalNAc-T2 and -T4 lectin mediated binding, in words” value [5] was “selectively inhibited” and the “inhibition of GalNAc-glycopeptide activity of GalNAc-T4” value (GalNAc-T4) was “selective inhibition”.

With `OC[C@H]1OC(O)[C@H](O)[C@@H](O)[C@H]1O` (some centres unmarked) [Gal] the “inhibition of GalNAc-T2 lectin domain binding (in words)” value [6] was “no inhibitory effect” and the “inhibition of GalNAc-T4 lectin domain binding (in words)” value [7] was “no inhibitory effect”.
